Data as given in US6638973B2, “Taxane formulations” (FSU Research Foundation, Inc., priority 2000, dated 2003).
pIC50: −log10 of the molar value.

What follows are compounds tested on HCT116 cells (assay: In vitro cytotoxicity measured by the cell colony formation assay). Conditions: HCT116 cells, 72 h incubation with drug, colonies counted after 7 days; ID50 = drug concentration producing 50% inhibition of colony formation; read-out: IN VITRO ID 50 (nm) HCT116.
Type: cell-based
Summary of the method: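 Colony-forming survival was scored 7 days after a 72 h, 37 °C compound exposure followed by washout into fresh medium.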
Compound `CCOC(=O)O[C@H]1C(=O)[C@@]2(C)C([C@H](OC(=O)c3ccccc3)[C@]3(O)C[C@H](OC(=O)[C@H](O)[C@@H](NC(=O)c4ccco4)c4ccco4)C(C)=C1C3(C)C)[C@]1(OC(C)=O)CO[C@@H]1C[C@@H]2O` (some centres unmarked) [Compound 3911] has a pIC50 of over 9.00. `CCCC(=O)N[C@@H](c1ccco1)[C@@H](O)C(=O)O[C@H]1C[C@@]2(O)[C@@H](OC(=O)c3ccccc3)C3[C@](C)(C(=O)[C@H](OC(=O)OCC)C(=C1C)C2(C)C)[C@@H](O)C[C@H]1OC[C@@]31OC(C)=O` (some centres unmarked) [Compound 3929] was tested, and the pIC50 was over 9.00. For `CCOC(=O)O[C@H]1C(=O)[C@@]2(C)C([C@H](OC(=O)c3ccccc3)[C@]3(O)C[C@H](OC(=O)[C@H](O)[C@@H](NC(=O)OC(C)C)c4ccco4)C(C)=C1C3(C)C)[C@]1(OC(C)=O)CO[C@@H]1C[C@@H]2O` (some centres unmarked) [Compound 3963], the pIC50 was over 9.00. `CC=CC(=O)NC(c1ccco1)C(O)C(=O)OC1CC2(O)C(OC(=O)c3ccccc3)C3C4(OC(C)=O)COC4CC(O)C3(C)C(=O)C(OC(=O)OCC)C(=C1C)C2(C)C` (centres unmarked) [Compound 4000] was tested, and the pIC50 was over 9.00.

Same assay, conditions: HCT116 colony formation; 72 h drug incubation, colonies counted after 7 days; Example 5, C-7 ester/C-10 hydroxy taxanes; read-out: IN VITRO ID 50 (nm) HCT116
`C/C=C/C(=O)N[C@@H](c1cccs1)[C@@H](O)C(=O)O[C@H]1C[C@@]2(O)[C@@H](OC(=O)c3ccccc3)C3[C@](C)(C(=O)[C@H](O)C(=C1C)C2(C)C)[C@@H](OC(=O)CC)C[C@H]1OC[C@@]31OC(C)=O` (some centres unmarked) [Compound 3560] gave a pIC50 of over 9.00. `CCOC(=O)N[C@@H](c1ccco1)[C@@H](O)C(=O)O[C@H]1C[C@@]2(O)[C@@H](OC(=O)c3ccccc3)C3[C@](C)(C(=O)[C@H](O)C(=C1C)C2(C)C)[C@@H](OC(=O)CC)C[C@H]1OC[C@@]31OC(C)=O` (some centres unmarked) [Compound 3611] was tested, and the pIC50 was over 9.00. `CCC(=O)O[C@H]1C[C@H]2OC[C@@]2(OC(C)=O)C2[C@H](OC(=O)c3ccccc3)[C@]3(O)C[C@H](OC(=O)[C@H](O)[C@@H](NC(=O)c4ccco4)c4ccco4)C(C)=C([C@@H](O)C(=O)[C@@]21C)C3(C)C` (some centres unmarked) [Compound 3629] gave a pIC50 of over 9.00. In the case of `CCC(=O)O[C@H]1C[C@H]2OC[C@@]2(OC(C)=O)C2[C@H](OC(=O)c3ccccc3)[C@]3(O)C[C@H](OC(=O)[C@H](O)[C@@H](NC(=O)c4cccs4)c4ccco4)C(C)=C([C@@H](O)C(=O)[C@@]21C)C3(C)C` (some centres unmarked) [Compound 3632], the pIC50 was over 9.00. Compound `C/C=C/C(=O)N[C@@H](c1ccco1)[C@@H](O)C(=O)O[C@H]1C[C@@]2(O)[C@@H](OC(=O)c3ccccc3)C3[C@](C)(C(=O)[C@H](O)C(=C1C)C2(C)C)[C@@H](OC(=O)CC)C[C@H]1OC[C@@]31OC(C)=O` (some centres unmarked) [Compound 3708] has a pIC50 of over 9.00.

Same assay, conditions: HCT116 colony formation; 72 h drug incubation, colonies counted after 7 days; Example 10, C-10 ester/C-7 hydroxy taxanes; read-out: IN VITRO ID 50 (nm) HCT116
`CCC(=O)O[C@H]1C(=O)[C@@]2(C)C([C@H](OC(=O)c3ccccc3)[C@]3(O)C[C@H](OC(=O)[C@H](O)[C@@H](NC(=O)OC(C)C)c4ccco4)C(C)=C1C3(C)C)[C@]1(OC(C)=O)CO[C@@H]1C[C@@H]2O` (some centres unmarked) [Compound 3522] showed a pIC50 of over 9.00. In the case of `CCOC(=O)N[C@@H](c1ccco1)[C@@H](O)C(=O)O[C@H]1C[C@@]2(O)[C@@H](OC(=O)c3ccccc3)C3[C@](C)(C(=O)[C@H](OC(=O)CC)C(=C1C)C2(C)C)[C@@H](O)C[C@H]1OC[C@@]31OC(C)=O` (some centres unmarked) [Compound 3535], the pIC50 was over 9.00. Compound `C/C=C/C(=O)N[C@@H](c1cccs1)[C@@H](O)C(=O)O[C@H]1C[C@@]2(O)[C@@H](OC(=O)c3ccccc3)C3[C@](C)(C(=O)[C@H](OC(=O)CCC)C(=C1C)C2(C)C)[C@@H](O)C[C@H]1OC[C@@]31OC(C)=O` (some centres unmarked) [Compound 3595] has a pIC50 of over 9.00. `CCC(=O)O[C@H]1C(=O)[C@@]2(C)C([C@H](OC(=O)c3ccccc3)[C@]3(O)C[C@H](OC(=O)[C@H](O)[C@@H](NC(=O)c4cccs4)c4ccco4)C(C)=C1C3(C)C)[C@]1(OC(C)=O)CO[C@@H]1C[C@@H]2O` (some centres unmarked) [Compound 3644] showed a pIC50 of over 9.00. Work on `CCCC(=O)O[C@H]1C(=O)[C@@]2(C)C([C@H](OC(=O)c3ccccc3)[C@]3(O)C[C@H](OC(=O)[C@H](O)[C@@H](NC(=O)c4cccs4)c4ccco4)C(C)=C1C3(C)C)[C@]1(OC(C)=O)CO[C@@H]1C[C@@H]2O` (some centres unmarked) [Compound 3656] yielded a pIC50 of over 9.00. `CC(=O)O[C@@]12CO[C@@H]1C[C@H](O)[C@@]1(C)C(=O)[C@H](OC(=O)C3CC3)C3=C(C)[C@@H](OC(=O)[C@H](O)[C@@H](NC(=O)c4cccs4)c4ccco4)C[C@@](O)([C@@H](OC(=O)c4ccccc4)C12)C3(C)C` (some centres unmarked) [Compound 3663] was tested, and the pIC50 was over 9.00. Compound `CCOC(=O)N[C@@H](c1ccco1)[C@@H](O)C(=O)O[C@H]1C[C@@]2(O)[C@@H](OC(=O)c3ccccc3)C3[C@](C)(C(=O)[C@H](OC(=O)C4CC4)C(=C1C)C2(C)C)[C@@H](O)C[C@H]1OC[C@@]31OC(C)=O` (some centres unmarked) [Compound 3677] has a pIC50 of over 9.00. Work on `CCCC(=O)O[C@H]1C(=O)[C@@]2(C)C([C@H](OC(=O)c3ccccc3)[C@]3(O)C[C@H](OC(=O)[C@H](O)[C@@H](NC(=O)c4ccco4)c4ccco4)C(C)=C1C3(C)C)[C@]1(OC(C)=O)CO[C@@H]1C[C@@H]2O` (some centres unmarked) [Compound 3686] yielded a pIC50 of over 9.00. `CCCC(=O)O[C@H]1C(=O)[C@@]2(C)C([C@H](OC(=O)c3ccccc3)[C@]3(O)C[C@H](OC(=O)[C@H](O)[C@@H](NC(=O)OCC)c4ccco4)C(C)=C1C3(C)C)[C@]1(OC(C)=O)CO[C@@H]1C[C@@H]2O` (some centres unmarked) [Compound 3693] was tested, and the pIC50 was over 9.00. `CCC(=O)O[C@H]1C(=O)[C@@]2(C)C([C@H](OC(=O)c3ccccc3)[C@]3(O)C[C@H](OC(=O)[C@H](O)[C@@H](NC(=O)c4ccco4)c4ccco4)C(C)=C1C3(C)C)[C@]1(OC(C)=O)CO[C@@H]1C[C@@H]2O` (some centres unmarked) [Compound 3818] was tested, and the pIC50 was over 9.00. `CC(=O)O[C@@]12CO[C@@H]1C[C@H](O)[C@@]1(C)C(=O)[C@H](OC(=O)C3CC3)C3=C(C)[C@@H](OC(=O)[C@H](O)[C@@H](NC(=O)OC(C)C)c4ccco4)C[C@@](O)([C@@H](OC(=O)c4ccccc4)C12)C3(C)C` (some centres unmarked) [Compound 3853] showed a pIC50 of over 9.00. For `CC(=O)O[C@@]12CO[C@@H]1C[C@H](O)[C@@]1(C)C(=O)[C@H](OC(=O)C3CC3)C3=C(C)[C@@H](OC(=O)[C@H](O)[C@@H](NC(=O)c4ccco4)c4ccco4)C[C@@](O)([C@@H](OC(=O)c4ccccc4)C12)C3(C)C` (some centres unmarked) [Compound 3866], the pIC50 was over 9.00. Compound `CCCC(=O)O[C@H]1C(=O)[C@@]2(C)C([C@H](OC(=O)c3ccccc3)[C@]3(O)C[C@H](OC(=O)[C@H](O)[C@@H](NC(=O)OC(C)C)c4cccs4)C(C)=C1C3(C)C)[C@]1(OC(C)=O)CO[C@@H]1C[C@@H]2O` (some centres unmarked) [Compound 3909] has a pIC50 of over 9.00. `CCCC(=O)O[C@H]1C(=O)[C@@]2(C)C([C@H](OC(=O)c3ccccc3)[C@]3(O)C[C@H](OC(=O)[C@H](O)[C@@H](NC(=O)OCC(C)C)c4ccco4)C(C)=C1C3(C)C)[C@]1(OC(C)=O)CO[C@@H]1C[C@@H]2O` (some centres unmarked) [Compound 3957] showed a pIC50 of over 8.00. Compound `C/C=C/C(=O)N[C@@H](c1ccco1)[C@@H](O)C(=O)O[C@H]1C[C@@]2(O)[C@@H](OC(=O)c3ccccc3)C3[C@](C)(C(=O)[C@H](OC(=O)C4CC4)C(=C1C)C2(C)C)[C@@H](O)C[C@H]1OC[C@@]31OC(C)=O` (some centres unmarked) [Compound 3971] has a pIC50 of over 9.00. Work on `C/C=C/C(=O)N[C@@H](c1ccco1)[C@@H](O)C(=O)O[C@H]1C[C@@]2(O)[C@@H](OC(=O)c3ccccc3)C3[C@](C)(C(=O)[C@H](OC(=O)CC)C(=C1C)C2(C)C)[C@@H](O)C[C@H]1OC[C@@]31OC(C)=O` (some centres unmarked) [Compound 3982] yielded a pIC50 of over 9.00. Work on `C/C=C/C(=O)N[C@@H](c1ccco1)[C@@H](O)C(=O)O[C@H]1C[C@@]2(O)[C@@H](OC(=O)c3ccccc3)C3[C@](C)(C(=O)[C@H](OC(=O)CCC)C(=C1C)C2(C)C)[C@@H](O)C[C@H]1OC[C@@]31OC(C)=O` (some centres unmarked) [Compound 3994] yielded a pIC50 of over 9.00.
